Reference: patent publication EP1733725B2, “Pharmaceutical solution comprising ritonavir, a solvent (long chain fatty acid) and water” (ABBOTT LABORATORIES, priority 1999, dated 2000)
Read-outs that look alike come from different tables or passages of the source.

Assay: oral bioavailability in dogs
Format: in vivo, beagle dogs
Details: dog, 5 mg/kg
Protocol: Protocol for Oral Bioavailability
Dogs (beagle dogs, mixed sexes, weighing 7-14 kg) were fasted overnight prior to dosing, but were permitted water ad libitum. Each dog received a 100 µg/kg subcutaneous dose of histamine approximately 30 minutes prior to dosing. Each dog received a single dosage form corresponding to a 5 mg/kg dose of the drug. The dose was followed by approximately 10 milliliters of water. Blood samples were obtained from each animal prior to dosing and 0.25, 0.5, 1.0, 1.5, 2, 3, 4, 6, 8, 10, and 12 hours after drug administration. The plasma was separated from the red cells by centrifugation and frozen (-30 °C) until analysis. Concentrations of parent drug were determined by reverse phase HPLC with low wavelength UV detection following liquid-liquid extraction of the plasma samples. The parent drug area under the curve was calculated by the trapezoidal method over the time course of the study. The absolute bioavailability of each test composition as calculated by comparing the area under the curve after oral dosing to that obtained from a single intravenous dose. Each capsule or capsule composition was evaluated in a group containing at least six dogs; the values reported are averages for each group of dogs.

Row | bioavailability (in vivo, administered as an unformulated solid in a capsule dosage form, 5 mg/kg oral dose in dogs, read-out: bioavailability) [%] | bioavailability (both sexes, beagle, plasma, administered as an unformulated solid in a capsule dosage form, 5 mg/kg oral dose in dogs, read-out: bioavailability) [%] | bioavailability (both sexes, beagle, plasma, solution in pharmaceutically acceptable organic solvents with long chain fatty acid, as encapsulated dosage form (soft elastic capsules or hard gelatin capsules), printed 'as high as about 60% or more', read-out: oral bioavailability) [%] | Structure (SMILES)
1 | < 2 | – | – | CC(C)c1nc(CN(C)C(=O)NC(C(=O)NC(Cc2ccccc2)CC(O)C(Cc2ccccc2)NC(=O)OCc2cncs2)C(C)C)cs1 (stereo not drawn) [bistosylate]
2 | – | < 2 | ~60 | CC(C)c1nc(CN(C)C(=O)N[C@H](C(=O)N[C@@H](Cc2ccccc2)C[C@H](O)[C@H](Cc2ccccc2)NC(=O)OCc2cncs2)C(C)C)cs1 [compound of formula III]
